Data set [1] has as its target T1, BACE1 (Homo sapiens (Human), UniProt P56817). Put plainly: Measurement of BACE1 inhibition by time resolved fluorescence resonance energy transfer (TR-FRET). It is filed as biochemical. Conditions: Eu-CEVNLDAEFK-QSY 7 substrate, read-out: Test Example 2 IC50.
Target sequence in this assay (P56817 75-416): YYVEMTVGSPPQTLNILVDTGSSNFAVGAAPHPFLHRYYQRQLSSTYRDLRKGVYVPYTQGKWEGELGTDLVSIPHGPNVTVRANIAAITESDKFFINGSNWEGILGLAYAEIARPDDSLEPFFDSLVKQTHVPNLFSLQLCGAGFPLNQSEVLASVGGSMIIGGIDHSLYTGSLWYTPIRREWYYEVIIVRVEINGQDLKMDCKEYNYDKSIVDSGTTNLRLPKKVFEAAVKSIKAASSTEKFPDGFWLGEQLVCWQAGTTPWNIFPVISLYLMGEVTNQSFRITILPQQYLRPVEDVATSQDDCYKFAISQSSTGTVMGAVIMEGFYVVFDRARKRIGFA
Method: If the sample contains BACE1 activity, the Eu chelate and the quencher will be separated as the substrate is cleaved. The Eu-signal increases and it can be measured by time-resolved fluorometry, EnVision™, 30 minutes after the substrate (final concentration 300 nM) was added.
In data set [2] the target is T1, BACE1. Put plainly: Measurement of BACE1 inhibition by fluorescence resonance energy transfer (FRET), MCA substrate. Conditions: read-out: Test Example 1 IC50; FRET, MCA-SEVNLDAEFK(DNP)-NH2 substrate, pH 4.4.
Target sequence in this assay (P56817 75-416): as above
Data set [3] deals with T1, BACE1. Put plainly: Measurement of Aβ production inhibition in cell (SK-N-BE(2) neuroblastoma cells, Aβ40 ELISA). Particulars: Test Example 3 IC50, Aβ40 production, SK-N-BE(2) cells, 6 hours.
Target sequence in this assay (P56817 46-501): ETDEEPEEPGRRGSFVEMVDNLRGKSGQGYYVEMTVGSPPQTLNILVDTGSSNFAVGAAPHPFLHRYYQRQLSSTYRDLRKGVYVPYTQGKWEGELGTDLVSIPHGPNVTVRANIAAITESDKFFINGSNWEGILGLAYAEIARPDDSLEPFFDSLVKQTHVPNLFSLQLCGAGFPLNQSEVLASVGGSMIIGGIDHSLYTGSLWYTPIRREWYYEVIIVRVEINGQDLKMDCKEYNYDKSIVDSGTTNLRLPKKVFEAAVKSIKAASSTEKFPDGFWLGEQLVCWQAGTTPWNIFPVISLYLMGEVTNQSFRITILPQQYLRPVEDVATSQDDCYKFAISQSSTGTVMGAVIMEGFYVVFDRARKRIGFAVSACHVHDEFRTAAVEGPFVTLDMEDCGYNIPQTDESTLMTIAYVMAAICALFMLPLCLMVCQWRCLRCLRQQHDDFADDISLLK
Data set [4] deals with hERG potassium channel (Homo sapiens (Human), UniProt Q12809). Nature of the data set: hERG inhibition, automated planar patch-clamp in hERG-expressing CHO cells. Particulars: read-out: Test Example 5 hERG IC50; whole-cell patch clamp, room temperature. On the technique in general: The hERG channel carries a current that helps repolarise heart muscle cells.
Sequence of hERG potassium channel (Q12809 whole entry): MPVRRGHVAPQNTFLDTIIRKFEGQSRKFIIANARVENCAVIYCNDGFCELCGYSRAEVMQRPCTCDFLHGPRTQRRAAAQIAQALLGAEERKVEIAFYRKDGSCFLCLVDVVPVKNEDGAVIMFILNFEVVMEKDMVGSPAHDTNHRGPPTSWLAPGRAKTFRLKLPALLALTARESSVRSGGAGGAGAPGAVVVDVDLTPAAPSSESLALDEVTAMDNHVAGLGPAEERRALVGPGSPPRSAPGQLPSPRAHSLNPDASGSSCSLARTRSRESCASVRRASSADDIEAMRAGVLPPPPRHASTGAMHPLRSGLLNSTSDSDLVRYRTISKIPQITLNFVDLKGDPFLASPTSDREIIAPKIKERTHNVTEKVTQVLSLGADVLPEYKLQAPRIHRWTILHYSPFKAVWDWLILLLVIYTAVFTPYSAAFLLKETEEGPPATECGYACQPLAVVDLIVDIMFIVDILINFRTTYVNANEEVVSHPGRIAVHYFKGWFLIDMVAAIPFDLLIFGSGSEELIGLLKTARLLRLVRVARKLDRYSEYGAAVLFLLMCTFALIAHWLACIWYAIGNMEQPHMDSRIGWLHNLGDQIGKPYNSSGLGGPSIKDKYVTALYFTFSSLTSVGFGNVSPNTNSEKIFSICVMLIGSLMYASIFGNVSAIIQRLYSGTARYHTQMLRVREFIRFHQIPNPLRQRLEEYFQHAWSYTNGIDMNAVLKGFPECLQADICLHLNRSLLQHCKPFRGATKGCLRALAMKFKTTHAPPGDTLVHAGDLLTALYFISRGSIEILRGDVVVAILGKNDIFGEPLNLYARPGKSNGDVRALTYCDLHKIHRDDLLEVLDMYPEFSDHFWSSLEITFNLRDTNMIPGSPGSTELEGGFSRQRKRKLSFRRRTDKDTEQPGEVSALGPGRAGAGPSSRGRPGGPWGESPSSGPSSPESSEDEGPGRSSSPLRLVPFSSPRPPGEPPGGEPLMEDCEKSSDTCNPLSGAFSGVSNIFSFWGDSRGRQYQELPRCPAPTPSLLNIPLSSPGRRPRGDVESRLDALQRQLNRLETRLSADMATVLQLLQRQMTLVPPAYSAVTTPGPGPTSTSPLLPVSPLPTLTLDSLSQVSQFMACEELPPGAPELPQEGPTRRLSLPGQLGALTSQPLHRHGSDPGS

In patent US8975415B2, “Chromane compounds” (CoMentis, Inc., priority 2012, dated 2015) one finds IC50 data, which are given here for 24 compounds.

Consider `CCC1CC=C(c2ccc3c(c2)C2(COC(N)=N2)C2(COC2)C(C)(C)O3)CC1` (stereo not drawn) [RP 172], for which the IC50 in data set [1] was 2160 nM; in data set [2] it was 2240 nM.
In the case of `CC1(C)Oc2ccc(-c3cnc4[nH]ccc4c3)cc2C2(COC(N)=N2)C12COC2` (stereo not drawn) [RP 168], the figures for the IC50 in data set [1] and in data set [3] were 760 nM and 310 nM, respectively.
In the case of `CC1(C)Oc2ccc(-c3cccc4cccnc34)cc2C2(COC(N)=N2)C12COC2` (stereo not drawn) [RP 179], the IC50 turned out to be 2060 nM in data set [1], 1400 nM in data set [3] and 3240 nM in data set [2].
On to `COc1ncc(Cl)cc1-c1ccc2c(c1)C1(COC(N)=N1)C1(COC1)C(C)(C)O2` (stereo not drawn) [RP 155], for which the concentration for half-maximal inhibition (IC50) in data set [1] stood at 786 nM; in data set [3], 630 nM.
For `CC#Cc1cc(-c2ccc3c(c2)C2(COC(N)=N2)C2(COC2)CO3)ccn1` (stereo not drawn) [RP 20], in that order: 2710 nM and 580 nM.
For `CC#Cc1cncc(-c2ccc3c(c2)C2(COC(N)=N2)C2(COC2)CO3)n1` (stereo not drawn) [RP 22], in that order: 2600 nM and 2900 nM.
For `CC#Cc1cc(-c2ccc3c(c2)C2(COC(N)=N2)C2(COC2)CO3)ncn1` (stereo not drawn) [RP 21], in that order: 1350 nM and 410 nM.
Consider `CC1(C)Oc2ccc(-c3cncc(Cl)n3)cc2C2(COC(N)=N2)C12COC2` (stereo not drawn) [RP 150], for which the results for the IC50 in data set [1] and in data set [3] were 759 nM and 450 nM, respectively.
On to `COc1ccnc(-c2ccc3c(c2)C2(COC(N)=N2)C2(COC2)C(C)(C)O3)c1` (stereo not drawn) [RP 65, 6′-(4-methoxypyridin-2-yl)-2′,2′-dimethyldispiro[1,3-oxazole-4,4′-chromene-3′,3″-oxetan]-2-amine], for which the 50% inhibitory concentration (IC50) in data set [1] was 388 nM; in data set [3], 49 nM.
For the compound `CC1(C)Oc2ccc(-c3cccc(OC(F)(F)F)c3)cc2C2(COC(N)=N2)C12COC2` (stereo not drawn) [RP 183], the IC50 in data set [1] worked out at 880 nM; in data set [2], 1080 nM.
As for `CC1(C)Oc2ccc(-c3cccc4[nH]ccc34)cc2C2(COC(N)=N2)C12COC2` (stereo not drawn) [RP 186], the IC50 in data set [1] was 2420 nM.
On the same count and under the same terms, in the case of `NC1=NC2(CO1)c1cc(-c3cnc4ccccc4c3)ccc1OC1(CCC1)C21COC1` (stereo not drawn) [RP 211] it was 19400 nM; in that of `COc1cc(-c2ccc3c(c2)C2(COC(N)=N2)C2(COC2)C(C)(C)O3)ccn1` (stereo not drawn) [RP 164], 2310 nM.
With `CC1(C)Oc2ccc(-c3ccccc3OC(F)(F)F)cc2C2(COC(N)=N2)C12COC2` (stereo not drawn) [RP 184], the IC50 in data set [1] is 2720 nM; in data set [2], 2820 nM.
On to `CC1(C)Oc2ccc(-c3cc(F)ccn3)cc2C2(COC(N)=N2)C12COC2` (stereo not drawn) [RP 149], for which the half-maximal inhibitory concentration (IC50) in data set [1] turned out to be 1590 nM; in data set [3], 1100 nM.
`CC1(C)Oc2ccc(-c3cccc4cc[nH]c34)cc2C2(COC(N)=N2)C12COC2` (stereo not drawn) [RP 175]: the IC50 came to 1550 nM in data set [1] and 3230 nM in data set [2].
Turning to `CC1(C)Oc2ccc(-c3ccc4c(c3)OCO4)cc2C2(COC(N)=N2)C12COC2` (stereo not drawn) [RP 182], the IC50 in data set [1] was 1450 nM; in data set [3] it was 2500 nM.
For `CC1(C)Oc2ccc(-c3ccc4[nH]ncc4c3)cc2C2(COC(N)=N2)C12COC2` (stereo not drawn) [RP 177], in that order: 2120 nM and 1500 nM.
Turning to `Cc1cc(-c2ccc3c(c2)C2(COC(N)=N2)C2(COC2)CO3)ccn1` (stereo not drawn) [RP 37], the IC50 in data set [1] was found to be 55400 nM.
As for `CC1(C)Oc2ccc(-c3ccc(OC(F)F)cc3)cc2C2(COC(N)=N2)C12COC2` (stereo not drawn) [RP 187], the IC50 in data set [1] amounted to 1920 nM; in data set [2] it was 3160 nM.
As for `CC1(C)Oc2ccc(-c3cccc4[nH]ncc34)cc2C2(COC(N)=N2)C12COC2` (stereo not drawn) [RP 176], the IC50 was found to be 994 nM in data set [1] and 850 nM in data set [3].
As to `NC1=NC2(CO1)c1cc(C3=CCOCC3)ccc1OCC21COC1` (stereo not drawn) [RP 24], the figures for the IC50 in data set [1] and in data set [2] were 32900 nM and 37900 nM, respectively.
On to `CC1(C)Oc2ccc(-c3ccnc(Cl)c3)cc2C2(COC(N)=N2)C12COC2` (stereo not drawn) [RP 163], for which the IC50 in data set [1] was determined as 1060 nM.
Consider `NC1=NC2(CO1)c1cc(-c3cncc(C(F)(F)F)c3)ccc1OC1(CCC1)C21COC1` (stereo not drawn) [RP 99], for which the figures for the IC50 in data set [4], in data set [3] and in data set [2] were more than 10000 nM, 1900 nM and 2970 nM, respectively.

For orientation: IC50 means the point on the concentration scale where inhibition reaches its midpoint.
